pEC50: −log10 of the molar value. Several values for one entry are separate records, joined by “and”; a condition that tells them apart may be missing. Equal values may be shown once. Read-outs that look alike come from different tables or passages of the source.
What was measured:
[1] = tested on: Plasmodium falciparum; assay: Antimicrobial activity against Plasmodium falciparum; assay type: cell-based; conditions: Table 1, Plasmodium falciparum
[2] = Metabolic stability in mouse liver microsomes; assay type: in vitro ADME
[3] = Rat pharmacokinetics, intravenous administration; assay type: in vivo; parameters: AUC(0-inf): unit not given here; conditions: 5 mg/kg; for AUC(0-inf) / Cmax / half-life / clearance / Vd: rat, iv; for Cmax / half-life / clearance / Vd: plasma
Experimental: (§1) The pharmacokinetics of compound 1 was tested in rats after intravenous and oral administration. Two rats were administered 5 mg/kg compound 1 intravenously in a vehicle consisting of 7% Tween 80, 3% EtOH, 5% DMSO in saline. Two rats were administered 20 mg/kg compound 1 orally in a vehicle consisting of 5% DMSO, 0.5% Tween 80, 1% methylcellulose in water. The results are shown in Table 4 and FIGS. 3A-3B and 4A-4B.

[4] = Rat pharmacokinetics, oral administration; assay type: in vivo; parameters: AUC(0-inf): unit not given here; conditions: 20 mg/kg; for AUC(0-inf) / Cmax / Tmax: rat, in vivo, po
Experimental: as §1

[5] = tested on: T. b. rhodesiense STIB900; assay: Mouse efficacy model of acute T. brucei infection; assay type: in vivo; conditions: 50 mg/kg po b.i.d. x 4 days from day 2, no detectable parasitemia 60 days post-infection
Experimental: For acute efficacy studies in mice, experiments were carried out using the standard operating procedure used by WHO screening centers and done in compliance with the University of Washington Institutional Animal Care and Use Committee (IACUC) approved protocol. […] The test compound was administered by oral gavage at 50 mg/kg every 12 h from day 2 to day 5, for a total of 8 doses in a 200 μL volume of a vehicle consisting of DMSO (5%), Tween 80 (7%), and EtOH (3%) in physiological saline (0.9%) solution. Parasitemia was monitored via microscopic analysis of tail blood for 60 d post-infection, or until parasites were detected. Mice were removed from the experiment once parasites were detected in the blood. […] Efficacy PK blood samples were collected from three of the five mice prior to dose 7, and at 1 h and 6 h post-dose.

[6] = tested on: T. b. brucei TREU667; assay: Mouse efficacy model of chronic T. brucei infection; assay type: in vivo; conditions: 50 mg/kg po b.i.d. x 10 days from day 21, no detectable parasitemia through 180 days post-infection, 50 mg/kg
Experimental: For chronic efficacy, experiments were done in compliance with the University of Washington IACUC approved protocol. According to published procedures, groups of 5 mice were infected with 1×10^4 T. b. brucei (strain TREU667) at day 0 to establish a chronic infection. Treatment began on day 21 post-infection, and mice received 50 mg/kg test compound orally b.i.d. for 10 d (total of 20 doses) in a 200 μL volume of a vehicle composed of Phosal 53 MCT (60%), PEG400 (30%) and EtOH (10%). A control group received vehicle with no compound and another control group received a single intraperitoneal dose of diminazene aceturate at 10 mg/kg in water on day 21. […] Post dosing, parasitemia was monitored via microscopic examination of tail blood slides until 180 days post-infection. Mice were removed from the experiment once parasites were detected in the blood.
In a model of the chronic phase of HAT, compound 1 was administered to five mice infected with T. b. brucei TREU667 at 50 mg/kg/po b.i.d.×10 days, beginning 21 days post-infection. […] Efficacy PK blood samples were collected from three of the five mice prior to dose 15, and at 1 h and 6 h post-dose. […] Compound 1 attained 5/5 cures as determined by the absence of detectable parasitemia in any of the treated mice through 180 days post-infection (FIG. 2). […]

[7] = Efficacy PK blood samples, chronic model; assay type: in vivo, mouse; conditions: 50 mg/kg po b.i.d.
Experimental: In a model of the chronic phase of HAT, compound 1 was administered to five mice infected with T. b. brucei TREU667 at 50 mg/kg/po b.i.d.×10 days, beginning 21 days post-infection. […] Efficacy PK blood samples were collected from three of the five mice prior to dose 15, and at 1 h and 6 h post-dose. Average plasma levels of the test compound were 15.8±8.7 μM (pre-dose), […] (1 h), and 26.7±7.1 μM (6 h). Compound 1 attained 5/5 cures as determined by the absence of detectable parasitemia in any of the treated mice through 180 days post-infection (FIG. 2). No mice receiving vehicle alone had spontaneous cures.

Structure (SMILES): O=C(Nc1ccc2sc(-c3ccc(F)c(F)c3)nc2c1)N1CC[C@H](F)C1 [Compound 1, (S)-2-(3,4-Difluorophenyl)-5-(3-fluoro-N-pyrrolidylamido)benzothiazole]
- pEC50 [1]: 4.78
- Microsome t1/2 (min) Mouse ([2]; Table 5): >60 min
- Mouse microsomes, percentage of compound remaining ([2]; Table 12, after 60 min (where t1/2 > 60 min)): 73%
- half-life at 3 μM ([2]; male, CD-1, liver microsomes, pH 7.4, mouse microsomes, read-out: microsomal half-life): > 1 h
- half-life at 1.5 μM ([2]; male, CD-1, mouse, liver microsomes, pH 7.4, Table 12, 37° C., NADPH (1 mM), microsomes 0.5 mg/mL, test compounds 1.5 μM, read-out: Mouse microsomes t1/2): > 1 h
- Tmax ([3]; Mean ± SEM (n = 2)): 5 min
- Tmax ([3]; Rat 2): 5 min
- Tmax ([3]; in vivo, Rat 1, read-out: Tmax (converted)): 5 min
- AUC(0-inf) ([3]; in vivo, Mean ± SEM (n = 2)): 1440
- AUC(0-inf) ([3]; in vivo, Rat 1): 1380
- AUC(0-inf) ([3]; in vivo, Rat 2): 1500
- Cmax ([3]; Mean ± SEM (n = 2)): 11.7 µM
- half-life ([3]; Mean ± SEM (n = 2), read-out: Apparent T1/2 (min) for steady state): 96.7 min
- half-life ([3]; Mean ± SEM (n = 2), read-out: Apparent T1/2 (min) for terminal phase): 96.7 min
- clearance ([3]; Mean ± SEM (n = 2), read-out: Plasma CL): 9.35 mL/min/kg
- Vd ([3]; Mean ± SEM (n = 2), read-out: Plasma Vz): 0.76 L/kg
- Vd ([3]; Mean ± SEM, read-out: Plasma Vss): 1.31 L/kg
- Cmax ([3]; Rat 1): 12.1 µM
- half-life ([3]; Rat 1, read-out: Apparent T1/2 (min) for steady state): 88.5 min
- half-life ([3]; Rat 1, read-out: Apparent T1/2 (min) for terminal phase): 88.5 min
- clearance ([3]; Rat 1, read-out: Plasma CL): 10.3 mL/min/kg
- Vd ([3]; Rat 1, read-out: Plasma Vss): 1.32 L/kg
- Vd ([3]; Rat 1, read-out: Plasma Vz): 0.882 L/kg
- Cmax ([3]; Rat 2): 11.3 µM
- half-life ([3]; Rat 2, read-out: Apparent T1/2 (min) for steady state): 105 min
- half-life ([3]; Rat 2, read-out: Apparent T1/2 (min) for terminal phase): 105 min
- clearance ([3]; Rat 2, read-out: Plasma CL): 8.38 mL/min/kg
- Vd ([3]; Rat 2, read-out: Plasma Vss): 1.3 L/kg
- Vd ([3]; Rat 2, read-out: Plasma Vz): 0.639 L/kg
- Apparent BA ([4]; Mean ± SEM (n = 2)): 116.85%
- Apparent BA ([4]; Rat 3): 110.29%
- Apparent BA ([4]; Rat 4): 123.40%
- AUC(0-inf) ([4]; Mean ± SEM (n = 2)): 6270
- Cmax ([4]; Mean ± SEM (n = 2)): 8.92 µM
- Tmax ([4]; Mean ± SEM (n = 2)): 7 h
- AUC(0-inf) ([4]; Rat 3): 5770
- Cmax ([4]; Rat 3): 7.31 µM
- Tmax ([4]; Rat 3): 8 h
- AUC(0-inf) ([4]; Rat 4): 6770
- Cmax ([4]; Rat 4): 10.5 µM
- Tmax ([4]; Rat 4): 6 h
- mice cured (cures) [5]: 5 of 5 and 5/5
- mice cured (cures) [6]: 5 of 5 and 5/5
- Average plasma levels ([7]; 1 h post dose 15): 23.1 ± 603 µM
- Average plasma levels ([7]; 6 h post dose 15): 26.7 ± 7.1 µM
- Average plasma levels ([7]; prior to dose 15 (pre-dose)): 15.8 ± 8.7 µM

Reference: US10399966B2, “Compounds for treatment of trypanosomes and neurological pathogens and uses thereof” (The University of North Carolina at Chapel Hill, priority 2016, dated 2019)
